The values below are quoted from earlier work in patent US20090263514A1, “Cold and flu tonic” (priority 2008, published 2009).

The conditions of the data set: in humans.

As to `O=C(/C=C/C=C/c1ccc2c(c1)OCO2)N1CCCCC1` [piperine], the bioavailability of curcumin entry is “enhance bioavailability of curcumin dramatically”.
